Each compound was assayed against T1, glucocorticoid receptor (GR) (Homo sapiens, UniProt P04150) (assay: Ligand binding assay (GR BIND), 3H-dexamethasone displacement, HeLa cell lysate). Conditions: Table 1; HeLa cell lysate, 3H-DEX.
T1 construct: endogenous in cells; host or cells: HeLa (ATCC) cell lysate supernatant
T1 sequence (P04150 1-777): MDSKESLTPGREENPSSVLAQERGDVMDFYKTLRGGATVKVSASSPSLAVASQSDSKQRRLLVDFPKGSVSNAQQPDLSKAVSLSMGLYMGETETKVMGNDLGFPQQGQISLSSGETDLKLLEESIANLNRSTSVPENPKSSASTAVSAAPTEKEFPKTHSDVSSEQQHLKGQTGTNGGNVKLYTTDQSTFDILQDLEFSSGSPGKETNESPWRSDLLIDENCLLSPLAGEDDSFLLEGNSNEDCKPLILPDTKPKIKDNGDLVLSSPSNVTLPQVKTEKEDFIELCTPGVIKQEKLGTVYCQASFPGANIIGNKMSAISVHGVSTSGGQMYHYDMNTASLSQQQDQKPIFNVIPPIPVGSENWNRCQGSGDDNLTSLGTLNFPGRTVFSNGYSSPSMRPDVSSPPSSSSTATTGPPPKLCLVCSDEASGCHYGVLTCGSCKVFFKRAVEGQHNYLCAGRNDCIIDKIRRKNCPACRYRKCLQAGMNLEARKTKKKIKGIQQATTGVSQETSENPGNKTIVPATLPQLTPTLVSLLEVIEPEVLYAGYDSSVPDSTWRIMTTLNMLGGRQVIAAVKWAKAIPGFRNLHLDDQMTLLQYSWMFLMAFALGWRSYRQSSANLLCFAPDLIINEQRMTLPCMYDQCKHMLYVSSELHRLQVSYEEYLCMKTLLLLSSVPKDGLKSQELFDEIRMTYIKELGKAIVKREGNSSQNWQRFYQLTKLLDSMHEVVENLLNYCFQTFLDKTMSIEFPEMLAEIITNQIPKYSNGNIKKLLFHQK
Description: Binding Buffer: TEGM (10 mM Tris-HCl, 1 mM EDTA, 10% glycerol, 1 mM beta-mercaptoethanol, 10 mM Sodium Molybdate, pH 7.2)
50% HAP Slurry: Calbiochem Hydroxylapatite, Fast Flow, in 10 mM Tris, pH 8.0 and 1 mM EDTA.
Wash Buffer: 40 mM Tris, pH7.5, 100 mM KCl, 1 mM EDTA and 1 mM EGTA.
Dexmethasone-methyl-^3H, (DEX*); (Amersham cat# TRK645)
Dexamethasone (DEX) (Sigma, cat# D1756):
Phenol red-free Trypsin-EDTA is diluted in the same PBS 1:10. The cell layers are rinsed with 1× Trypsin, extra Trypsin is poured out, and the cell layers are incubated at 37° C. for ˜2 min. The flask is tapped and checked for signs of cell detachment. Once the cells begin to slide off the flask, the complete media is added. The cells are counted at this point, then diluted to the appropriate concentration and split into flasks or dishes for further culturing (Usually 1:3 to 1:6 dilution).
Preparation of Hela Cell Lysate
The cell pellet is washed twice with TEGM (10 mM Tris-HCl, 1 mM EDTA, 10% glycerol, 1 mM beta-mercaptoethanol, 10 mM Sodium Molybdate, pH 7.2). After the final wash, the cells are resuspended in TEGM at a concentration of 10^7 cells/mL. The cell suspension is snap frozen in liquid nitrogen or ethanol/dry ice bath and transferred to −80° C. freezer on dry ice. Before setting up the binding assay, the frozen samples are left on ice-water to just thaw (˜1 hr). Then the samples are centrifuged at 12,500 g to 20,000 g for 30 min at 4° C. The supernatant is used to set-up assay right away. If using 50 μL of supernatant, the test compound can be prepared in 50 μL of the TEGM buffer.
Procedure for Multiple Compound Screening
1×TEGM buffer is prepared, and the isotope-containing assay mixture is prepared in the following order: EtOH (2% final concentration in reaction), 3H-DEX (Amersham Biosciences) and 1×TEGM. [e.g. For 100 samples, 200 μL (100×2) of EtOH+4.25 μL of 1:10 ^3H-Dex stock+2300 μL (100×23) 1×TEGM]. The compound is serially diluted, e.g., if starting final conc. is 1 μM, and the compound is in 25 μL of solution, for duplicate samples, 75 μL of 4×1 μM solution is made and 3 μL of 100 μM is added to 72 μL of buffer, and 1:5 serial dilution.
25 μL of ^3H-DEX (6 nM) trace and 25 μL compound solution are first mixed together, followed by addition of 50 μL receptor solution. The reaction is gently mixed, spun briefly at about 200 rpm and incubated at 4° C. overnight. 100 μL of 50% HAP slurry is prepared and added to the incubated reaction which is then vortexed and incubated on ice for 5 to 10 minutes. The reaction mixture is vortexed twice more to resuspend HAP while incubating reaction. The samples in 96-well format are then washed in wash buffer using The FilterMate™ Universal Harvester plate washer (Packard). The washing process transfers HAP pellet containing ligand-bound expressed receptor to Unifilter-96 GF/B filter plate (Packard). The HAP pellet on the filter plate is incubated with 50 μL of MICROSCINT (Packard) scintillant for 30 minutes before being counted on the TopCount microscintillation counter (Packard). IC50s are calculated using DEX as a reference.

| SMILES | Ki [nM] |
| --- | --- |
| C[C@]12Cc3cnn(-c4ccc(F)cc4)c3C=C1CC[C@@]2(O)CCc1ccccc1C(=O)NCC1CC1 [Example 37, N-(cyclopropylmethyl)-2-{2-[(4αS,5R)-1-(4-fluorophenyl)-5-hydroxy-4α-methyl-1,4,4α,5,6,7-hexahydrocyclopenta[r]indazol-5-yl]ethyl}benzamide] | 0.44 |
| CC(CNC(=O)c1c(F)cccc1CC[C@]1(O)CCC2=Cc3c(cnn3-c3ccc(F)cc3)C[C@@]21C)C(F)(F)F (stereo partly drawn) [Example 38, 2-fluoro-6-{2-[(4αS,5R)-1-(4-fluorophenyl)-5-hydroxy-4α-methyl-1,4,4α,5,6,7-hexahydrocyclopenta[f]indazol-5-yl]ethyl}-N-(3,3,3-trifluoro-2-methylpropyl)benzamide] | 0.43 |
| C[C@]12Cc3cnn(-c4ccc(F)cc4)c3C=C1CC[C@@]2(O)CCc1ccccc1C(=O)N1CCC1 [Example 40, (4αS,5R)-5-{2-[2-(azetidin-1-ylcarbonyl)phenyl]ethyl}-1-(4-fluorophenyl)-4α-methyl-1,4,4α,5,6,7-hexahydrocyclopenta[f]indazol-5-ol] | 6.14 |
| COC(=O)C(C)(C)NC(=O)c1c(F)cccc1CC[C@]1(O)CCC2=Cc3c(cnn3-c3ccc(F)cc3)C[C@@]21C [Example 41, methyl N-(2-fluoro-6-{2-[(4αS,5R)-1-(4-fluorophenyl)-5-hydroxy-4α-methyl-1,4,4α,5,6,7-hexahydrocyclopenta[f]indazol-5-yl]ethyl}benzoyl)-2-methylalaninate] | 0.83 |
| C[C@]12Cc3cnn(-c4ccccc4)c3C=C1CC[C@@]2(O)CCc1ccccc1C(=O)NC1CC1 [Example 42, N-cyclopropyl-2-{2-[(4αS,5R)-5-hydroxy-4α-methyl-1-phenyl-1,4,4α,5,6,7-hexahydrocyclopenta[f]indazol-5-yl]ethyl}benzamide] | 2.79 |
| C[C@]12Cc3cnn(-c4ccccc4)c3C=C1CC[C@@]2(O)CCc1ccccc1C(N)=O [Example 43, 2-{2-[(4αS,5R)-5-hydroxy-4α-methyl-1-phenyl-1,4,4α,5,6,7-hexahydrocyclopenta[f]indazol-5-yl]ethyl}benzamide] | 5.16 |
| C=C(C)CNC(=O)c1c(F)cccc1CC[C@]1(O)CCC2=Cc3c(cnn3-c3ccc(F)cc3)C[C@@]21C [Example 44, 2-fluoro-6-{2-[(4αS,5R)-1-(4-fluorophenyl)-5-hydroxy-4α-methyl-1,4,4α,5,6,7-hexahydrocyclopenta[f]indazol-5-yl]ethyl}-N-(2-methylprop-2-en-1-yl)benzamide] | 0.6 |
| C[C@H](CNC(=O)c1ccccc1CC[C@]1(O)CCC2=Cc3c(cnn3-c3ccc(F)cc3)C[C@@]21C)C(F)(F)F [Example 45, 2-{2-[(4αS,5R)-1-(4-fluorophenyl)-5-hydroxy-4α-methyl-1,4,4α,5,6,7-hexahydrocyclopenta[f]indazol-5-yl]ethyl}-N-[(2R)-3,3,3-trifluoro-2-methylpropyl]benzamide] | 1.02 |
| C[C@]12Cc3cnn(-c4ccc(F)cc4)c3C=C1CC[C@@]2(O)CCc1ccccc1C(=O)N1CCCCC1 [Example 46, (4αS,5R)-1-(4-fluorophenyl)-4α-methyl-5-{2-[2-(piperidin-1-ylcarbonyl)phenyl]ethyl}-1,4,4α,5,6,7-hexahydrocyclopenta[f]indazol-5-ol] | 3.02 |
| C[C@]12Cc3cnn(-c4ccc(F)cc4)c3C=C1CC[C@@]2(O)CCc1ccccc1C(=O)N1CCCC1 [Example 47, (4αS,5R)-1-(4-fluorophenyl)-4α-methyl-5-{2-[2-(pyrrolidin-1-ylcarbonyl)phenyl]ethyl}-1,4,4α,5,6,7-hexahydrocyclopenta[f]indazol-5-ol] | 11.5 |
| CC(C)[C@@H](C)NC(=O)c1c(F)cccc1CC[C@]1(O)CCC2=Cc3c(cnn3-c3ccc(F)cc3)C[C@@]21C [Example 48, N-[(1R)-1,2-dimethylpropyl]-2-fluoro-6-{2-[(4αS,5R)-1-(4-fluorophenyl)-5-hydroxy-4α-methyl-1,4,4α,5,6,7-hexahydrocyclopenta[f]indazol-5-yl]ethyl}benzamide] | 1.2 |
| CCCNC(=O)c1c(F)cccc1CC[C@]1(O)CCC2=Cc3c(cnn3-c3ccc(F)cc3)C[C@@]21C [Example 49, 2-fluoro-6-{2-[(4αS,5R)-1-(4-fluorophenyl)-5-hydroxy-4α-methyl-1,4,4α,5,6,7-hexahydrocyclopenta[f]indazol-5-yl]ethyl}-N-propylbenzamide] | 0.81 |
| CCNC(=O)c1ccccc1CC[C@]1(O)CCC2=Cc3c(cnn3-c3ccc(F)c(F)c3)C[C@@]21C [Example 51, 2-{2-[(4αS,5R)-1-(3,4-difluorophenyl)-5-hydroxy-4α-methyl-1,4,4α,5,6,7-hexahydrocyclopenta[f]indazol-5-yl]ethyl}-N-ethylbenzamide] | 7.05 |
| COC(=O)C(C)(C)NC(=O)c1ccccc1CC[C@]1(O)CCC2=Cc3c(cnn3-c3ccc(F)cc3)C[C@@]21C [Example 52, methyl N-(2-{2-[(4αS,5R)-1-(4-fluorophenyl)-5-hydroxy-4α-methyl-1,4,4α,5,6,7-hexahydrocyclopenta[f]indazol-5-yl]ethyl}benzoyl)-2-methylalaninate] | 0.8 |
| CC(C)(C)CNC(=O)c1c(F)cccc1CC[C@]1(O)CCC2=Cc3c(cnn3-c3ccc(F)cc3)C[C@@]21C [Example 55, N-(2,2-dimethylpropyl)-2-fluoro-6-{2-[(4αS,5R)-1-(4-fluorophenyl)-5-hydroxy-4α-methyl-1,4,4α,5,6,7-hexahydrocyclopenta[f]indazol-5-yl]ethyl}benzamide] | 0.92 |
| C=CCNC(=O)c1c(F)cccc1CC[C@]1(O)CCC2=Cc3c(cnn3-c3ccc(F)cc3)C[C@@]21C [Example 57, N-allyl-2-fluoro-6-{2-[(4αS,5R)-1-(4-fluorophenyl)-5-hydroxy-4α-methyl-1,4,4α,5,6,7-hexahydrocyclopenta[f]indazol-5-yl]ethyl}benzamide] | 0.61 |

Same assay, conditions: Table 2; prior-art comparison compounds

| SMILES | Ki [nM] |
| --- | --- |
| C[C@]12Cc3cnn(-c4ccc(F)cc4)c3C=C1CC[C@@]2(O)CCc1ccccc1Cl [Example 40 WO 2004/075840 A2, reference compound] | 20.7 |
| C[C@]12Cc3cnn(-c4ccc(F)cc4)c3C=C1CCC[C@@]2(O)CCc1ccccc1Cl [Example 41 WO 2004/075840 A2, reference compound] | 0.32 |
| C[C@]12Cc3cnn(-c4ccc(F)cc4)c3C=C1CC[C@@]2(O)CCc1ccc(F)cc1 [Example 46 WO 2004/075840 A2, reference compound] | 1 |
| COc1ccccc1CC[C@]1(O)CCC2=Cc3c(cnn3-c3ccc(F)cc3)C[C@@]21C [Example 58 WO 2004/075840 A2, reference compound] | 0.28 |

Source: patent US8119681B2, “2-[1-phenyl-5-hydroxy or methoxy-4alpha-methyl-hexahydrocyclopenta [ƒ]indazole-5-YL]ethyl phenyl derivatives as glucocorticoid receptor ligands” (Merck Sharp & Dohme Corp., priority 2006, dated 2012)
